Experiments:
REH = experiment: Leukemia cell growth inhibition, CellTiter-Glo (Example 1); type: cell-based, human; settings: REH cells, 4 μM
Method: (§2) Various human leukemia cells were grown to the logarithmic growth phase and seeded into 24-well plates. […] Treated cells were further incubated for 72 hours and then were examined for cell proliferation. Cell proliferation was determined using the CellTiter-Glo Luminescence Cell Viability assay (Promega Corporation, Madison, Wis.) according to the manufacturer's protocol. The calculated inhibition rate was determined with the following formula: Inhibition rate (%)=(1−Luminescence of experimental group/Luminescence of control group)×100. IC50 is the calculated concentration of a compound needed to inhibit half of the maximum cell growth (equivalent to cell growth in control group) based on the corresponding dose-response curve under the described experimental conditions.

MV4-11 cells = experiment: Subcutaneous MV4-11 leukemia tumor growth in NOD/SCID mice (Example 5); type: in vivo
Method: Female Nonobese Diabetic/Severe Combined Immunodeficiency (NOD/SCID) mice that were 4-6 weeks old were used in the experiment. The mice were fed under specific pathogen free (SPF) conditions. Food and water were available to the mice at will. A suspension of 1×10^7 cells per mouse B-myelomonocytic leukemia MV4-11 cells (0.2 mL) in logarithmic phase were inoculated subcutaneously into the right back of the NOD/SCID nude mice.
The general conditions of the mice and the growth of the transplanted tumor were monitored. […] The control group received an intraperitoneal (IP) injection of 0.2 mL of solvent (20% DMSO, 80% of 20% w/v (2-hydroxypropyl)-β-cyclodextrin made in PBS). […] The high dosage group received an intraperitoneal injection of 50 mg/kg/day of YT30 (0.2 mL in volume) suspended in solvent (20% DMSO, 80% of 20% w/v (2-hydroxypropyl)-β-cyclodextrin made in PBS), while the low dosage group received IP injection of 25 mg/kg/day YT30 (0.2 mL in volume). Frequency of the administration was once per day and the experiment lasted 27 days after treatment started.
The body weights of the mice were recorded prior to the start of treatment and twice every week thereafter. Each mouse of every group was monitored daily for any other symptoms of side effects including change in behavior, activity or posture, areas of redness and swelling, and food and water withdrawal. Caliper measurements of the longest perpendicular tumor diameters were performed every 2 days to estimate the tumor volume; the following formula: 4π/3×(width/2)^2×(length/2) was used to calculate the three-dimensional volume of an ellipse. The tumor inhibition rate was calculated according to tumor volume: Tumor inhibition rate by size (%)=(Tumor volume of the control group−Tumor volume of the treated group)/Tumor volume of the control group×100. The mice were euthanized on the next day after the final injection and the subcutaneous tumor nodules were taken out intact and weighed. The tumor inhibition rate was calculated again according to tumor weight: Tumor inhibition rate by weight (%)=(Tumor weight of the control group−Tumor weight of the treated group)/Tumor weight of the control group×100).

Nalm-6 [1] = experiment: cells; settings: Homo sapiens, NALM-6, 72 h, read-out: 72 hr growth inhibition (%)
Method: as §2
Growth inhibition experiments were performed as previously described.

Nalm-6 [2] = experiment: Leukemia cell growth inhibition, CellTiter-Glo (Example 1); type: cell-based, human
Method: as §2

K-562 = experiment: as above; type: cell-based; settings: Homo sapiens, K562; K-562, CML; 72 hours
Method: as §2

MV4-11 = experiment: as above; type: cell-based; settings: Homo sapiens; MV4-11, B-myelomonocytic (Biphenotypic B-cell leukemia); 72 hours
Method: as §2

HL60 = experiment: as above; type: cell-based, human
Method: as §2

SEM cells = experiment: as above; type: cell-based; settings: Homo sapiens, ALL (B-cell), 72 hours
Method: as §2

RS4;11 = experiment: as above; type: cell-based; settings: Homo sapiens; RS4;11, ALL (B-cell); 72 hours
Method: as §2

BaF3 BCR-ABL = experiment: as above; type: cell-based; settings: Mouse cell line with BCR-ABL, 72 hours
Method: as §2

SR = experiment: as above; type: cell-based; settings: Homo sapiens, Lymphoma, 72 hours
Method: as §2

BaF3 BCR-ABL T315I = experiment: as above; type: cell-based; settings: Mouse cell line with BCR-ABL with T315I point mutation (Gleevec resistant), 72 hours
Method: as §2

K562R = experiment: as above; type: cell-based; settings: Homo sapiens, K-562R, CML (Gleevec resistant), 72 hours
Method: as §2

HCT116 = experiment: Cancer cell line growth inhibition, CellTiter-Glo (Example 3); type: cell-based; settings: Homo sapiens, HCT-116, Colon, 72 hours
Method: (§1) YT30 was tested for growth inhibition against 67 human cancer cell lines derived from diverse tissues including the National Cancer Institute human cancer cell lines (NCI-60). […] Cells in different wells were treated with various concentrations of YT30, YT86, YT88, or YT128. […] Cell viabilities were determined by the CellTiter-Glo Luminescence Cell Viability assay kit (Promega Corporation, Madison, Wis.) according to manufacturer's protocol.

SK-MEL-2 = experiment: as above; type: cell-based; settings: Homo sapiens, Melanoma, 72 hours
Method: as §1

SK-OV-3 = experiment: as above; type: cell-based; settings: Homo sapiens, Ovary, 72 hours
Method: as §1

SK-MEL-5 = experiment: as above; type: cell-based; settings: Homo sapiens, Melanoma, 72 hours
Method: as §1

RCH-HCV = experiment: as above; type: cell-based; settings: Homo sapiens, Leukemia, 72 hours
Method: as §1

OVCAR-8 = experiment: as above; type: cell-based; settings: Homo sapiens, Ovary, 72 hours
Method: as §1

Colo 205 = experiment: as above; type: cell-based; settings: Homo sapiens, Colon, 72 hours
Method: as §1

OVCAR-3 = experiment: as above; type: cell-based; settings: Homo sapiens, Ovary, 72 hours, read-out: IC50
Method: as §1

UO-31 = experiment: as above; type: cell-based; settings: Homo sapiens, Renal, 72 hours, read-out: IC50
Method: as §1

siHa = experiment: as above; type: cell-based; settings: Homo sapiens, Cervical, 72 hours, read-out: IC50
Method: as §1

RCH-ACV = experiment: Leukemia cell growth inhibition, CellTiter-Glo (Example 1); type: cell-based; settings: Homo sapiens, ALL (B-cell), 72 hours
Method: as §2

`Nc1ccccc1NC(=O)CCCCCC(=O)Nc1cccc(Br)c1` [YT30] was tested, and the “Growth inhibition (FIG. 1)” value (REH) was “significantly inhibit cell growth”, the “Average body weight (g, x ± s) End point” value (MV4-11 cells; 25 mg/kg I.P. × 27 days) was 21.33 ± 1.26 g and the “Average body weight (g, x ± s) Initial” value (MV4-11 cells; 25 mg/kg I.P. × 27 days) was 21.61 ± 1.18 g. For the same compound, the “Body weight change (%)” value (MV4-11 cells; 25 mg/kg I.P. × 27 days) was −1.0%, the “Tumor growth Inhibition by weight (%)” value (MV4-11 cells; 25 mg/kg I.P. × 27 days) was 38.8% and the “Tumor size (mm^3)” value (MV4-11 cells; 25 mg/kg I.P. × 27 days) was 1072.31 ± 296.29 mm^3. For the same compound, the “Tumor weight (g, x ± s)” value (MV4-11 cells; 25 mg/kg I.P. × 27 days) was 1.35 ± 0.47 g, the “Tumor growth Inhibition by size (%)” value (MV4-11 cells; 25 mg/kg I.P. × 27 days (low dosage)) was 51.0% and the “Average body weight (g, x ± s) End point” value (MV4-11 cells; 50 mg/kg I.P. × 27 days) was 18.86 ± 1.38 g. For the same compound, the “Average body weight (g, x ± s) Initial” value (MV4-11 cells; 50 mg/kg I.P. × 27 days) was 21.02 ± 0.97 g, the “Body weight change (%)” value (MV4-11 cells; 50 mg/kg I.P. × 27 days) was −6.8% and the “Tumor growth Inhibition by weight (%)” value (MV4-11 cells; 50 mg/kg I.P. × 27 days) was 58.8%. For the same compound, the “Tumor size (mm^3)” value (MV4-11 cells; 50 mg/kg I.P. × 27 days) was 774.63 ± 269.10 mm^3, the “Tumor weight (g, x ± s)” value (MV4-11 cells; 50 mg/kg I.P. × 27 days) was 0.91 ± 0.27 g and the “Tumor growth Inhibition by size (%)” value (MV4-11 cells; 50 mg/kg I.P. × 27 days (high dosage)) was 64.6%. The inhibition at 0.5 µM (Nalm-6 [1]) was 2.5%, the inhibition at 1 µM (Nalm-6 [1]) was 8.4% and the IC50 (Nalm-6 [2]; Homo sapiens, NALM-6, ALL (B-cell), 72 hours) was 2.36 µM. For the same compound, the “Growth inhibition (FIG. 1)” value (Nalm-6 [2]; Nalm-6 cells, 4 μM) was “significantly inhibit cell growth”, the IC50 (K-562) was 1.82 µM and the IC50 (MV4-11) was 4.06 µM. The “Growth inhibition (FIG. 1)” value (HL60; HL60 cells, 4 μM) was “significantly inhibit cell growth”, the IC50 (HL60; Homo sapiens, HL-60, HL60, AML (subtype APL), 72 hours) was 1.04 µM and the IC50 (SEM cells) was 1.15 µM. It also gave an IC50 (RS4;11) of 1.05 µM, an IC50 (BaF3 BCR-ABL) of 3.4 µM and an IC50 (SR) of 6.89 µM. It also gave an IC50 (BaF3 BCR-ABL T315I) of 1.11 µM, an IC50 (K562R) of 3.21 µM and an IC50 (HCT116) of 13 µM. It also gave an IC50 (SK-MEL-2) of 4.6 µM, an IC50 (SK-OV-3) of 8.09 µM and an IC50 (SK-MEL-5) of 3.87 µM. It also gave an IC50 (RCH-HCV) of 0.79 µM, an IC50 (OVCAR-8) of 6.74 µM and an IC50 (Colo 205) of 14.4 µM. The IC50 (OVCAR-3) was 9.17 µM, the IC50 (UO-31) was 10.7 µM and the IC50 (siHa) was 13.1 µM. For the same compound, the IC50 (RCH-ACV) was 0.79 µM.
